From US20230183239A1, “ECTONUCLEOTIDE PYROPHOSPHATASE-PHOSPHODIESTERASE 1 (ENPP-1) INHIBITORS AND USES THEREOF” (AbbVie Inc., priority 2017, published 2023)

Key:
Assay type in all cases: biochemical
ENPP1 [1] = target: T1, ENPP1 (Homo sapiens, UniProt P22413); assay: ENPP1 enzyme assay with AMP-pNP substrate (hydrolysis of ATP analog); settings: AMP-pNP substrate (ATP analog); Ki from IC50 by Cheng-Prusoff; read-out: ENPP1 Inhibition _AMP-pNP: Ki
T1 sequence (P22413 1-925): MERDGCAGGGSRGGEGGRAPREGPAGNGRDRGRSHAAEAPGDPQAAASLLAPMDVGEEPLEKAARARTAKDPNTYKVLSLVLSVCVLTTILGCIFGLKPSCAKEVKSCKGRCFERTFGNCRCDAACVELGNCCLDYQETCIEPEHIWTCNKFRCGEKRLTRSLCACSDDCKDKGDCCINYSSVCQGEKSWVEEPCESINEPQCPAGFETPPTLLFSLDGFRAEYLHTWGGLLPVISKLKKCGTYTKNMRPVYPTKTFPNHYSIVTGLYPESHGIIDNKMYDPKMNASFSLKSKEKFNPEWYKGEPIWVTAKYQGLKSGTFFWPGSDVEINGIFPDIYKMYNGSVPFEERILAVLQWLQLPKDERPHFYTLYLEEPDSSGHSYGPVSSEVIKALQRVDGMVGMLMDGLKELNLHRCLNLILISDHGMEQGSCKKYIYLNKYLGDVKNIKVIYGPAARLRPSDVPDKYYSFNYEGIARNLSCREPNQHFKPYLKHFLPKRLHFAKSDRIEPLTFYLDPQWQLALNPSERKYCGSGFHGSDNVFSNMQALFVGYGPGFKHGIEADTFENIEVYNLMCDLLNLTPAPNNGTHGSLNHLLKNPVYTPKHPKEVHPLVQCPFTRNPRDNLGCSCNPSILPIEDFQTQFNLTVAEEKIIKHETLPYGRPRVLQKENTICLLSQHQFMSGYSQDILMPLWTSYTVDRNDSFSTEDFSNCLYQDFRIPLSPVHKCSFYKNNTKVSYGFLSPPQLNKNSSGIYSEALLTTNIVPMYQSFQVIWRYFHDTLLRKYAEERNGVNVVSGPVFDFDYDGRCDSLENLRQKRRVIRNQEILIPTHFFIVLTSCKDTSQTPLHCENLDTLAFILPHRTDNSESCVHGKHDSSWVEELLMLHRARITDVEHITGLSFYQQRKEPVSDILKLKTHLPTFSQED
Method in brief: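 Reactions ran 20 min at 37 °C, pH 8.5 Tris buffer with NaCl, CaCl2, ZnCl2, using 300 µM AMP-pNP and 60 ng/well recombinant human ENPP1; inhibitor range 10 µM–30 pM, duplicates.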

ENPP1 [2] = target: T1, ENPP1; assay: Indirect quantitation of 2',3'-cGAMP hydrolysis (AMP-Glo Assay kit); settings: cGAMP substrate; Ki from IC50 by Cheng-Prusoff; read-out: ENPP1 Inhibition -cGAMP: Ki
ENPP1 [3] = target: T1, ENPP1; assay: Substrate selectivity ratio, inhibition of cGAMP hydrolysis versus ATP hydrolysis; settings: ratio Ki AMP-pNP / Ki cGAMP
Description: The selectivity ratios for inhibition of cGAMP hydrolysis versus ATP hydrolysis were then calculated as follows: […]

Ki (ENPP1 [1])	Ki (ENPP1 [2])	Substrate Selectivity: Ki_AMP-pNP/Ki_cGAMP (ENPP1 [3])	Structure (SMILES)
< 100 nM	< 100 nM	8.9	COc1cc2nccc(-c3ccc(CNS(N)(=O)=O)c(F)c3)c2cc1OC [Example 69, N-(4-(6,7-dimethoxyquinolin-4-yl) -2-fluorobenzyl)sulfamide]
100 to 1000 nM	< 100 nM	>28.3	COc1cc2ncnc(-c3ccc(CN(C4CC4)S(N)(=O)=O)cc3)c2cc1OC [Example 285, N-cyclopropyl-N-(4-(6,7-dimethoxyquinazolin-4-yl)benzyl)sulfamide]
100 to 1000 nM	< 100 nM	39	COc1ccc2c(-c3ccc(CNS(N)(=O)=O)cc3)c(C(F)(F)F)cnc2c1 [Example 386, N-(4-(7-methoxy-3-(trifluoromethyl)quinolin-4-yl)benzyl) sulfamide]
100 to 1000 nM	< 100 nM	21.9	COc1cc2ncnc(-c3ccc4c(c3)CC(NS(N)(=O)=O)C4)c2cc1OC (stereo not drawn) [Example 122, N-(5-(6,7-dimethoxyquinazolin-4-yl)-2,3-dihydro-1H-inden-2-yl)sulfamide]
> 1000 nM	< 100 nM	>34.0	NS(=O)(=O)c1ccc(CNc2ncnc3cc(F)ccc23)cc1 [Example 304, 4-(((7-fluoroquinazolin-4-yl)amino)methyl)benzenesulfonamide]
> 1000 nM	100 to 1000 nM	> 25.0	COc1cc2nccc(OCc3ccc(NS(N)(=O)=O)cc3)c2cc1OC [Example 191, N-(4-(((6,7-dimethoxyquinolin-4-yl)oxy)methyl)phenyl) sulfamide]
< 100 nM	< 100 nM	41.6	COc1cc2ncnc(NCc3ccc(S(N)(=O)=O)cc3)c2cc1F [Example 259, 4-(((6-fluoro-7-methoxyquinazolin-4-yl)amino)methyl)benzenesulfonamide]
> 1000 nM	100 to 1000 nM	>82.4	NS(=O)(=O)Nc1ccc(Nc2ncnc3ncccc23)cc1 [Example 242, N-(4-(pyrido[2,3-d]pyrimidin-4-ylamino)phenyl)sulfamide]
> 1000 nM	< 100 nM	35.7	COc1cc2nccc(-c3ccc(CNS(N)(=O)=O)nc3)c2cc1OC [Example 314, N-((5-(6,7-dimethoxyquinolin-4-yl)pyridin-2-yl)methyl)sulfamide]
> 1000 nM	100 to 1000 nM	>134	COc1cc2ccc(=O)n(Cc3ccc(NS(N)(=O)=O)cc3)c2cc1OC [Example 126, N-(4-((6,7-dimethoxy-2-oxoquinolin-1(2H)-yl)methyl)phenyl) sulfamide]
100 to 1000 nM	< 100 nM	24.2	COc1ccc2c(NC(C)c3ccc(NS(N)(=O)=O)cc3)ncnc2c1 (stereo not drawn) [Example 279, N-(4-(1-((7-methoxyquinazolin-4-yl)amino)ethyl)phenyl)sulfamide]
100 to 1000 nM	< 100 nM	62	COc1cc2nccc(-c3ccc(CNS(N)(=O)=O)cc3)c2cc1F [Example 239, N-(4-(6-fluoro-7-methoxyquinolin-4-yl)benzyl)sulfamide]
> 1000 nM	< 100 nM	>69.1	COc1cc2nccc(Nc3ccc(NS(N)(=O)=O)cc3)c2cc1OC [Example 134, N-(4-((6,7-dimethoxyquinolin-4-yl)amino)phenyl)sulfamide]
100 to 1000 nM	< 100 nM	53.0	COc1ccc2c(-c3ccc(CNS(N)(=O)=O)cc3)c(C#N)cnc2c1 [Example 244, N-(4-(3-cyano-7-methoxyquinolin-4-yl)benzyl)sulfamide]
100 to 1000 nM	< 100 nM	28.4	COc1ccc2c(Oc3ccc(NS(N)(=O)=O)c(C)c3)ccnc2c1 [Example 308, N-(4-((7-methoxyquinolin-4-yl)oxy)-2-methylphenyl)sulfamide]

The remaining lines, values behind:

Structure (SMILES)	Ki (ENPP1 [1])	Ki (ENPP1 [2])	Substrate Selectivity: Ki_AMP-pNP/Ki_cGAMP (ENPP1 [3])
NS(=O)(=O)NCCC1CCN(c2ncnc3c2CCNC3)CC1 [Example 232, N-(2-(1-(5,6,7,8-tetrahydropyrido[3,4-d]pyrimidin-4-yl)piperidin-4-yl)ethyl)sulfamide]	> 1000 nM	100 to 1000 nM	> 7.1
COc1cc2nccc(-c3ccc4c(c3)CCN(S(N)(=O)=O)C4)c2cc1OC [Example 367, 6-(6,7-dimethoxyquinolin-4-yl)-3,4-dihydroisoquinoline-2(1H)-sulfonamide]	> 1000 nM	< 100 nM	>35
COc1cc2nccc(N3CCC4(CC3)CCN(S(N)(=O)=O)C4)c2cc1OC [Example 160, 8-(6,7-dimethoxyquinolin-4-yl)-2,8-diazaspiro[4.5]decane-2-sulfonamide]	< 100 nM	< 100 nM	13.9
COc1cc2ncnc(N3CCC(CCNS(N)(=O)=O)CC3)c2cc1Cl [Example 169, N-(2-(1-(6-chloro-7-methoxyquinazolin-4-yl)piperidin-4-yl)ethyl)sulfamide]	100 to 1000 nM	< 100 nM	6.9
COc1cc2ncnc(-c3ccc4c(c3)CCN(S(N)(=O)=O)C4)c2cc1OC [Example 121, 6-(6,7-dimethoxyquinazolin-4-yl)-3,4-dihydroisoquinoline-2(1H)-sulfonamide]	> 1000 nM	< 100 nM	>61.5
COc1ccc2ncnc(N3CCC4(CC3)CCN(S(N)(=O)=O)C4)c2c1 [Example 70, 8-(6-methoxyquinazolin-4-yl)-2,8-diazaspiro [4.5] decane-2-sulfonamide]	< 100 nM	< 100 nM	15.5
COc1cc2nccc(Oc3ccc(N(O)C=O)cc3)c2cc1OC [Example 292, N-(4-((6,7-dimethoxyquinolin-4-yl)oxy)phenyl)-N-hydroxyformamide]	> 1000 nM	< 100 nM	>31.1
COc1ccc2c(Oc3ccc(N)cc3)ccnc2c1 [Example 342, 4-((7-methoxyquinolin-4-yl)oxy)aniline]	> 1000 nM	100 to 1000 nM	>64.9
COc1cc2c(N3CCC(CCNS(N)(=O)=O)CC3)ncnc2cn1 [Example 189, N-(2-(1-(6-methoxypyrido[3,4-d]pyrimidin-4-yl)piperidin-4-yl)ethyl)sulfamide]	> 1000 nM	100 to 1000 nM	> 27.0
COc1cc2ncc(C#N)c(N3CCC(CCNS(N)(=O)=O)CC3)c2cn1 [Example 245, N-(2-(1-(3-cyano-7-methoxy-1,6-naphthyridin-4-yl)piperidin-4-yl)ethyl)sulfamide]	> 1000 nM	100 to 1000 nM	>92.6
COc1cc2c(N3CCC(CCNS(N)(=O)=O)CC3)ncnc2cc1Cl [Example 185, N-(2-(1-(7-chloro-6-methoxyquinazolin-4-yl)piperidin-4-yl)ethyl)sulfamide]	> 1000 nM	100 to 1000 nM	> 8.00
COc1cc2nccc(-c3ccc(CN(C)S(N)(=O)=O)cc3)c2cc1OC [Example 61, N-(4-(6,7-dimethoxyquinolin-4-yl)benzyl)-N-methylsulfamide]	< 100 nM	< 100 nM	23.7
COc1cc2ncnc(NC3CCC(NS(N)(=O)=O)CC3)c2cc1OC (stereo not drawn) [Example 272, N-(4-((6,7-dimethoxyquinazolin-4-yl)amino)cyclohexyl)sulfamide]	> 1000 nM	< 100 nM	>35.2
NS(=O)(=O)N1CCC2(CCN(c3ncnc4cc(F)ccc34)CC2)C1 [Example 250, 8-(7-fluoroquinazolin-4-yl)-2,8-diazaspiro [4.5] decane-2-sulfonamide]	> 1000 nM	< 100 nM	> 89.3
